Source: patent publication US20250205244A1, “METHODS OF TREATING MIGRAINE WITH MNK INHIBITORS” (4E Therapeutics, Inc., priority 2021, published 2025)
pIC50: −log10 of the molar value.

Key:
[1] = molecular target: recombinant human kinase, MNK1 (Homo sapiens, UniProt Q9BUB5); assay: MNK1 substrate phosphorylation assay; assay type: biochemical
[2] = molecular target: recombinant human kinase, MNK2 (Homo sapiens, UniProt Q9HBH9); assay: MNK2 substrate phosphorylation assay; assay type: biochemical
[3] = tested on: eIF4E phosphorylation at Serine 209 in the human embryonic kidney (HEK) 293 cell line; assay: Inhibition of eIF4E phosphorylation in HEK293 cells (phospho-specific antibody, fluorescent plate reader); assay type: cell-based; details: HEK293, 2 h, eIF4E phosphorylation at Serine 209, HEK293 cells, 2 hours exposure
Protocol: The ability of MNK inhibitors described herein to inhibit eIF4E phosphorylation at Serine 209 in the human embryonic kidney (HEK) 293 cell line was tested by exposing the cells to compound for 2 hours and then measuring eIF4E phosphorylation with a phosphorylation-specific antibody in a fluorescent plate reader. These experiments were done with HEK-293 cells plated on 96 well plates. Following treatment, cells were fixed with ice cold methanol for 10 min and then washed in 1× phosphate buffered saline (PBS) and the permeabilized with 0.02% Triton X-100 in 10% normal goat serum made up in PBS. Primary antibody was applied overnight at a concentration dilution of 1:2000 (p-eIF4E antibody from Cell Signaling ab76256). Following washing, cells were then exposed to secondary antibody conjugated to alexa-fluor 488 and then visualized on a Syngergy HTX plate reader. Fluorescence for p-eIF4E was measured and normalized to total DAPI fluorescence to determine the percentage of eIF4E phosphorylation in each well. Data were plotted in Graphpad Prism V8 to determine concentration-response effects and calculate IC50 values.

WT mice, dural IL-6 = assay: Dural IL-6-induced acute facial hypersensitivity and grimace in mice; assay type: in vivo, mouse; details: female and male WT mice; 10 mg/kg oral gavage prior to dural IL-6 (0.1 ng); compared to the vehicle group
Description: Female and male MNK1 KO mice were a gift of the Sonenberg laboratory at McGill University and bred at the University of Texas at Dallas (UTD) to generate experimental animals (Ueda T, et al., MNK2 and MNK1 are essential for constitutive and inducible phosphorylation of eukaryotic initiation factor 4E but not for cell growth or development. Mol Cell Biol. August 2004). Genotype was confirmed at weaning using DNA from ear clips. Experimental C57BL6/J wild-type (WT) animals were obtained from an internally maintained C57BL/6 J colony at the University of Texas at Dallas. For pharmacological studies, female and male ICR (CD-1) mice aged 6-8 weeks (˜25-30 g) were outbred and purchased from Envigo. All mice were housed in groups of four animals per cage on a 12-hour light-dark cycle and had access to food and water ad libitum. Upon arrival to the animal care facility, animals were allowed a minimum of 72 hours to acclimate to their new environment before being handled for experiments. All experiments were performed between the hours of 9:00 AM and 5:00 PM. All procedures were conducted with prior approval of the Institutional Animal Care and Use Committee at the University of Texas at Dallas.
For dural injections, human recombinant interleukin-6 (IL-6) protein (R&D Systems) stock solution ([…]) was prepared in sterile 0.1% BSA and diluted to 1 ng/ml in synthetic interstitial fluid (SIF) consisting of 135 mM NaCl, 5 mM KCl, 10 mM HEPES, 2 mM CaCl2), 10 mM glucose, 1 mM MgCl2 (pH 7.4, 310 mOsm). Sodium nitroprusside (SNP) (Sigma-Aldrich) was prepared fresh in sterile phosphate buffered saline (PBS) at the time of use and was kept away from light. To test for the presence of hyperalgesic priming, mice were given a 150 μL IP injection of 0.1 mg/kg of SNP or a 5 μL dural injection of SIF solution that was brought to a pH of 7.0, as previously described (Avona A., et al., Repetitive stress in mice causes migraine-like behaviors and CGRP-dependent hyperalgesic priming to a migraine trigger. Pain. (2020); Burgos-Vega C. C. et al., Non-invasive dural stimulation in mice: A novel preclinical model of migraine. Cephalalgia. (2019)). […] MNK inhibitors were given orally to WT mice at 10 mg/kg approximately 1 hr prior to dural IL-6 or dural pH 7.0.
Mouse dural injections were performed as previously described (Burgos-Vega C. C. et al., Non-invasive dural stimulation in mice: A novel preclinical model of migraine. Cephalalgia. (2019)). Mice were anesthetized under isoflurane for <2 min with <2.5-3% isoflurane via a chamber and given a 5 μL injection via a modified internal cannula (Invivo1, part #8IC313ISPCXC, Internal Cannula, standard, 28 gauge, fit to 0.5 mm). […]

[4] = tested on: WT mice, dural pH 7.0 after dural IL-6; assay: Hyperalgesic priming to dural pH 7.0 after dural IL-6 in mice; assay type: in vivo, mouse; details: female and male WT mice
Description: Female and male MNK1 KO mice were a gift of the Sonenberg laboratory at McGill University and bred at the University of Texas at Dallas (UTD) to generate experimental animals (Ueda T, et al., MNK2 and MNK1 are essential for constitutive and inducible phosphorylation of eukaryotic initiation factor 4E but not for cell growth or development. Mol Cell Biol. August 2004). Genotype was confirmed at weaning using DNA from ear clips. Experimental C57BL6/J wild-type (WT) animals were obtained from an internally maintained C57BL/6 J colony at the University of Texas at Dallas. For pharmacological studies, female and male ICR (CD-1) mice aged 6-8 weeks (˜25-30 g) were outbred and purchased from Envigo. All mice were housed in groups of four animals per cage on a 12-hour light-dark cycle and had access to food and water ad libitum. Upon arrival to the animal care facility, animals were allowed a minimum of 72 hours to acclimate to their new environment before being handled for experiments. All experiments were performed between the hours of 9:00 AM and 5:00 PM. All procedures were conducted with prior approval of the Institutional Animal Care and Use Committee at the University of Texas at Dallas. […]

recombinant human kinase, MNK1, sequence (Q9BUB5 whole entry): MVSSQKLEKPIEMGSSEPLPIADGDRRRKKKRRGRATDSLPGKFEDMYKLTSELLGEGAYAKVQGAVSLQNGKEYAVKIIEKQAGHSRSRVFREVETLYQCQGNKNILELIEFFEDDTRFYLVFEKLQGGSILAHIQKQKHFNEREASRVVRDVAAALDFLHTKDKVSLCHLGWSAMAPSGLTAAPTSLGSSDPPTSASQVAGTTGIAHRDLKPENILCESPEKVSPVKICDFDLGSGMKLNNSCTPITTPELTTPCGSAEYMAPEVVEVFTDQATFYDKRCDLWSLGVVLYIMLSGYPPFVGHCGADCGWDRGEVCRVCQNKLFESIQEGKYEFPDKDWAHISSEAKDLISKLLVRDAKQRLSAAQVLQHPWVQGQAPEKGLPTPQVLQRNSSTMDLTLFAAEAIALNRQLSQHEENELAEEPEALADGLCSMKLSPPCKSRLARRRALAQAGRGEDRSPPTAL
recombinant human kinase, MNK2, sequence (Q9HBH9 whole entry): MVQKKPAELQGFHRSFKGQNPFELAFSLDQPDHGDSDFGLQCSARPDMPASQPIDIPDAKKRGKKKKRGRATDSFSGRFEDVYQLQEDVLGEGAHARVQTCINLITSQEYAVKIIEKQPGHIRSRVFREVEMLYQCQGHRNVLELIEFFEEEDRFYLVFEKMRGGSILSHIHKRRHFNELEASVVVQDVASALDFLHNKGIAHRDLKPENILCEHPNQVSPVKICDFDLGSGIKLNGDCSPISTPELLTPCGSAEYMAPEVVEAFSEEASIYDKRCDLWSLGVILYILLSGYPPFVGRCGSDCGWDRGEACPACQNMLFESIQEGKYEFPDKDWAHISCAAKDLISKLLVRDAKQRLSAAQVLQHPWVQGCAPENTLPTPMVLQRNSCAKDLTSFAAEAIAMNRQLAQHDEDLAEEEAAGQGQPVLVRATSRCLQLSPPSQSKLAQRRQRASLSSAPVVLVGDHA

Structure (SMILES) | pIC50 [1] | pIC50 [2] | pIC50 [3] | dural IL-6 induced facial grimace measures (grimace score) (WT mice, dural IL-6) | dural IL-6 induced facial hypersensitivity (periorbital von Frey) (WT mice, dural IL-6) | hyperalgesic priming to dural pH 7.0 ([4]; 10 mg/kg oral gavage prior to dural IL-6, later tested with dural SIF pH 7.0) | hyperalgesic priming to dural pH 7.0 ([4]; 10 mg/kg oral gavage prior to dural pH 7.0, compared to the vehicle group)
Nc1cc(Nc2cc(Cl)c3n(c2=O)C2(CCC4(CC4)CC2)NC3=O)ncn1 [4ET-04-023] | 7.43 | 8.73 | 8.92 | significantly attenuated |  |  | 
Cc1cc(Nc2cc(N)ncn2)c(=O)n2c1C(=O)NC21CCCCC1 [eFT508, reference compound] |  |  |  | significantly attenuated | significantly attenuated | did not prime to dural pH 7.0 | did not prime to pH 7.0
Cc1cc(Nc2cc(N)ncn2)c(=O)n2c1C(=O)NC21CCC2(CCC2)C1 (stereo not drawn) [4ET-01-015] | 7.51 | 8.59 | 8.41 |  |  |  | 
Cc1cc(Nc2cc(N)ncn2)c(=O)n2c1C(=O)NC21CCCC2(CC2)CC1 (racemic) [rac-4ET-01-027, 6″-((6-aminopyrimidin-4-yl)amino)-8″-methyl-2″H-dispiro[cyclopropane-1,1′-CYCLOHEPTANE-4′,3″-imidazo[1,5-a]pyridine]-1″,5″-dione] |  |  |  | significantly attenuated |  |  | 
